Assays:
HIV-IIIb = experiment: Test A: Antiviral assay in MT4 cells; format: cell-based, HIV-1; settings: Human immunodeficiency virus 1, IIIB, MT4, 120 h, read-out: % inhibition at 2 μM, percent inhibition of virus-induced cell killing, from dose response curve at 2 uM drug; MT-4 cells infected with HIV-IIIb, 5 days, CellTiter-Glo
in vitro = settings: human, uninfected MT-4 cells, CC50 (nM), same protocol as Test A, CellTiter-Glo
Method in brief: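 Cytoprotection read-out: CellTiter-Glo chemiluminescence after 5 days at 37 °C of HIV-IIIb-infected MT-4 cells (m.o.i. 0.003) with compound in 10-point 3-fold dilutions, quadruplicate, 10% FBS. Cytotoxicity (CC50) measured identically without virus.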

Row | Compound | inhibition at 2 µM (HIV-IIIb) | CC50 at 5 days (in vitro)
1 | NC(=O)c1cc(-c2cccnc2[C@H](Cc2cc(F)cc(F)c2)NC(=O)Cn2cnc3c(=O)[nH]ccc32)ccc1F [Example 336, (S)-5-(2-(2-(3,5-difluorophenyl)-1-(2-(4-oxo-4,5-dihydro-1H-imidazo[4,5-c]pyridin-1-yl)acetamido)ethyl)pyridin-3-yl)-2-fluorobenzamide] | 0% | > 53200 nM
2 | NCc1ccc2c(CC(=O)N[C@@H](Cc3cc(F)cc(F)c3)c3ncccc3-c3cccc(C(N)=O)c3)c[nH]c2c1 [Example 584, (S)-3-(2-(1-(2-(6-(aminomethyl)-1H-indol-3-yl)acetamido)-2-(3,5-difluorophenyl)ethyl)pyridin-3-yl)benzamide] | 93% | 7250 nM
3 | Cc1cc2cnn(CC(=O)N[C@@H](Cc3cc(F)cc(F)c3)c3ncccc3-c3ccc(F)c(C(N)=O)c3)c2cc1C [Example 485, (S)-5-(2-(2-(3,5-difluorophenyl)-1-(2-(5,6-dimethyl-1H-indazol-1-yl)acetamido)ethyl)pyridin-3-yl)-2-fluorobenzamide] | 43% | 22200 nM
4 | O=C(Cc1c[nH]c2ccc(F)cc12)N[C@@H](Cc1cc(F)cc(F)c1)c1ncccc1-c1ccccc1Cl [Example 395, (S)—N-(1-(3-(2-chlorophenyl)pyridin-2-yl)-2-(3,5-difluorophenyl)ethyl)-2-(5-fluoro-1H-indol-3-yl)acetamide] | 41% | 11600 nM
5 | CC(C)Oc1ccc(-c2cccnc2[C@H](Cc2cc(F)cc(F)c2)NC(=O)Cn2nc(C(F)(F)F)c3c2CCCC3)cc1 [Example 100, (S)—N-(2-(3,5-difluorophenyl)-1-(3-(4-isopropoxyphenyl)pyridin-2-yl)ethyl)-2-(3-(trifluoromethyl)-4,5,6,7-tetrahydro-1H-indazol-1-yl)acetamide] | 56% | 7830 nM
6 | Cc1ccccc1-c1ccnc(C(Cc2ccccc2)NC(=O)Cc2c[nH]c3ccc(O)cc23)n1 (centres unmarked) [Example 9E, 2-(5-hydroxy-1H-indol-3-yl)-N-(2-phenyl-1-(4-o-tolylpyrimidin-2-yl)ethyl)acetamide] | 0% | 35900 nM
7 | O=C(Cn1nc(C(F)(F)F)c2c1CCCC2)N[C@@H](Cc1cc(F)cc(F)c1)c1ncccc1-c1cnc2[nH]ccc2c1 [Example 407, (S)—N-(1-(3-(1H-pyrrolo[2,3-b]pyridin-5-yl)pyridin-2-yl)-2-(3,5-difluorophenyl)ethyl)-2-(3-(trifluoromethyl)-4,5,6,7-tetrahydro-1H-indazol-1-yl)acetamide] | 102% | 12000 nM
8 | NC(=O)c1cccc(-c2cccnc2[C@H](Cc2cc(F)cc(F)c2)NC(=O)Cn2nc(C(F)(F)F)c3c2COCC3)c1 [Example 144, (S)-3-(2-(2-(3,5-difluorophenyl)-1-(2-(3-(trifluoromethyl)-4,5-dihydropyrano[3,4-c]pyrazol-1(7H)-yl)acetamido)ethyl)pyridin-3-yl)benzamide] | 89% | > 53000 nM
9 | NC(=O)c1cccc(-c2cccnc2[C@H](Cc2cc(F)cc(F)c2)NC(=O)Cn2ccc3cc(F)c(F)cc32)c1 [Example 594B, (S)-3-(2-(1-(2-(5,6-difluoro-1H-indol-1-yl)acetamido)-2-(3,5-difluorophenyl)ethyl)pyridin-3-yl)benzamide] | 12% | 13400 nM
10 | Cc1[nH]c2ccc(F)cc2c1CC(=O)N[C@@H](Cc1cc(F)cc(F)c1)c1ncccc1-c1ccc(Cl)cc1 [Example 597, (S)—N-(1-(3-(4-chlorophenyl)pyridin-2-yl)-2-(3,5-difluorophenyl)ethyl)-2-(5-fluoro-2-methyl-1H-indol-3-yl)acetamide] | 89% | 8650 nM
11 | CC(C)(C)OC(=O)NCc1ccc2[nH]cc(CC(=O)N[C@@H](Cc3cc(F)cc(F)c3)c3ncccc3-c3cccc(C(N)=O)c3)c2c1 [Example 529, (S)-tert-butyl (3-(2-(1-(3-(3-carbamoylphenyl)pyridin-2-yl)-2-(3,5-difluorophenyl)ethylamino)-2-oxoethyl)-1H-indol-5-yl)methylcarbamate] | 53% | 13000 nM
12 | COc1ccc(-c2cccnc2[C@H](Cc2cc(F)cc(F)c2)NC(=O)Cc2c[nH]c3cc(OC)c(OCc4ccccc4)cc23)cc1 [Example 34E, (S)-2-(5-(benzyloxy)-6-methoxy-1H-indol-3-yl)-N-(2-(3,5-difluorophenyl)-1-(3-(4-methoxyphenyl)pyridin-2-yl)ethyl)acetamide] | 0% | 27800 nM
13 | Cc1c(C#N)c(C(F)(F)F)nn1CC(=O)N[C@@H](Cc1cc(F)cc(F)c1)c1ncccc1-c1ccc(N(C)C)c(C(N)=O)c1 [Example 372, (S)-5-(2-(1-(2-(4-cyano-5-methyl-3-(trifluoromethyl)-1H-pyrazol-1-yl)acetamido)-2-(3,5-difluorophenyl)ethyl)pyridin-3-yl)-2-(dimethylamino)benzamide] | 0% | 24000 nM
14 | NC(=O)c1cc(-c2cccnc2[C@H](Cc2cccc(F)c2)NC(=O)Cn2nc(C(F)(F)F)c3ccccc32)ccc1F [Example 213C, (S)-2-fluoro-5-(2-(2-(3-fluorophenyl)-1-(2-(3-(trifluoromethyl)-1H-indazol-1-yl)acetamido)ethyl)pyridin-3-yl)benzamide] | 14% | 15900 nM
15 | Cc1cc(-c2cccnc2[C@H](Cc2cc(F)cc(F)c2)NC(=O)Cc2c[nH]c3ccc(F)cc23)cnc1F [Example 419] | 42% | 27100 nM
16 | NC(=O)c1cc(-c2cccnc2[C@H](Cc2cc(F)cc(F)c2)NC(=O)Cn2nc(C(F)F)c3c2CC2CC32)ccc1F (stereo partly drawn) [Example 198, 5-(2-((1S)-1-(2-(3-(difluoromethyl)-3b,4,4a,5-tetrahydro-1H-cyclopropa[3,4]cyclopenta[1,2-c]pyrazol-1-yl)acetamido)-2-(3,5-difluorophenyl)ethyl)pyridin-3-yl)-2-fluorobenzamide] | 112% | 45900 nM
17 | Nc1ccc(-c2cccnc2[C@H](Cc2cc(F)cc(F)c2)NC(=O)Cn2nc(C(F)F)c3c2C(F)(F)CCC3(F)F)cn1 [Example 375, (S)—N-(1-(6′-amino-3,3′-bipyridin-2-yl)-2-(3,5-difluorophenyl)ethyl)-2-(3-(difluoromethyl)-4,4,7,7-tetrafluoro-4,5,6,7-tetrahydro-1H-indazol-1-yl)acetamide] | 98% | 15200 nM
18 | COc1ccc(-c2cccnc2[C@@H](Cc2ccccc2)NC(=O)Cn2nc(C(F)(F)F)c3c2CCCC3)cc1 [Example 23, (R)—N-(1-(3-(4-methoxyphenyl)pyridin-2-yl)-2-phenylethyl)-2-(3-(trifluoromethyl)-4,5,6,7-tetrahydro-1H-indazol-1-yl)acetamide] | 0% | 13800 nM
19 | NC(=O)c1cc(-c2cccnc2[C@H](Cc2cc(F)cc(F)c2)NC(=O)Cn2nc(C(F)(F)F)c3c2CC(F)(F)C3)ccc1F [Example 239, (S)-5-(2-(1-(2-(5,5-difluoro-3-(trifluoromethyl)-5,6-dihydrocyclopenta[c]pyrazol-1(4H)-yl)acetamido)-2-(3,5-difluorophenyl)ethyl)pyridin-3-yl)-2-fluorobenzamide] | 18% | 19400 nM
